Several values for one entry are separate records, joined by “and”; a condition that tells them apart may be missing. Identical values can stand only once. Like-named read-outs stand apart in the source and are kept apart here.
Columns and labels:
[1] = molecular target: Asu-EAT-2 nAChR (Ascaris suum, UniProt F1L9Y6); assay: cell-based; format: cell-based, A. suum
[2] = molecular target: T1, Cel-EAT-2 and Cel-EAT-18c nAChR (Caenorhabditis elegans, UniProt Q9U298); assay: Two-electrode voltage-clamp of Cel-EAT-2 + Cel-EAT-18c nAChR expressed in Xenopus oocytes; format: cell-based; settings: for Hill slope (nH): agonist concentration-response; for Emax at 100 µM: read-out: current response normalized to the control 100 μM ACh current (Imax); for EC50: read-out: pEC50 (converted)
T1 sequence (Q9U298 22-474): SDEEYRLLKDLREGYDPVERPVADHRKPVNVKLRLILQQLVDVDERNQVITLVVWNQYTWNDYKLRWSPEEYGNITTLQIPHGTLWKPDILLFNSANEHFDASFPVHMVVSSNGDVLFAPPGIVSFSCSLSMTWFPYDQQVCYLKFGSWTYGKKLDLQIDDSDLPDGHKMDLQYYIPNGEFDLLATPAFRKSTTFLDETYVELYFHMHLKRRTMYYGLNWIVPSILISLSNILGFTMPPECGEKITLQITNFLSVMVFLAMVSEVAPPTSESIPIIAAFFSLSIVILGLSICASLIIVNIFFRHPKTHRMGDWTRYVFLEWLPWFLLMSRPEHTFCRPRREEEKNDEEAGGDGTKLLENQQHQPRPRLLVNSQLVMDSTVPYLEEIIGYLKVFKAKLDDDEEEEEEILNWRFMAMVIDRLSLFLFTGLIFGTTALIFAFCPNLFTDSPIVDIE

[3] = test system: nAChRs expressed in the pharynx of A. suum; assay: tissue or blood; format: cell-based; settings: for Emax: read-out: % change in membrane conductance (δG) normalized to the ACh δG; for maximal response (δG) of ACh in the presence of antagonist / normalized response (δG) to muscarinic agonists, control ACh = 100%: mean±SE; for normalized response (δG) to muscarinic agonists, control ACh = 100%: 100 μM, 10 s application, n=4; for mode of antagonism of the pharyngeal ACh response: ACh pEC50 unchanged, maximal response inhibited; for % change in membrane conductance (δG) normalized to the ACh δG: normalized to 100 μM ACh (10 s), n≥4
Method: A. suum pharyngeal dissections and electrophysiology recordings were adapted from Martin [49]. Briefly, pharynx was dissected out from the head region of the worm and mounted on Sylgard (Sigma-Aldrich Inc., USA)—lined in a double jacketed bath chamber maintained at 28°C. The muscle layer surrounding the anterior 3rd of the pharynx was preserved for anchoring. The intestine attached to the posterior end of the pharynx was used for stretching and pinning down. The preparation was continuously perfused with calcium-free Ascaris Perienteric Fluid-Ringer (calcium-free APF-Ringer) composition (mM): NaCl 23, Na-acetate 110, KCl 24, MgCl2 11, glucose 11, and HEPES 5; NaOH or acetic acid was added to adjust the pH to 7.6. […] The rate of localized perfusion was 3.5–4 ml min^−1 through a 20-gauge needle, which was placed directly above the recording region of the pharynx. […] We used 3 M potassium acetate in our micropipettes to get the final resistances of 4–7 MΩ for the voltage sensing and 0.5–1 MΩ for the current injecting electrode for current-clamp recordings. The current-injecting electrode injected hyperpolarizing step currents of −1000 nA for 500 ms at 0.3 Hz.
We constructed the sigmoidal concentration-response plots by fitting the data by nonlinear regression to determine the pEC50 and the maximal response (Rmax). Extra sum of squares F-test was used to test statistical differences between pEC50, slope, and maximal response. The significance levels were set to P<0.05.
In applications containing arecoline and pilocarpine, we used mecamylamine, a nAChR antagonist (30µM) to inhibit nAChRs and to allow only mAChR activation.

[4] = test system: A. suum muscarinic receptor; design: method as in earlier work; settings: all used at 100 µM; ref 1 Kimber M.J. et al. Int J Parasitol 39: 1215-1222 (2009); cited from earlier work
[5] = read-out: current response normalized to the control 100 μM ACh current, mean±SEM, n≥5
[6] = in the presence of mecamylamine 30 μM
[7] = read-out: current response normalized to the control 100 μM ACh current

Asu-EAT-2 nAChR, sequence (F1L9Y6 entry or part of it): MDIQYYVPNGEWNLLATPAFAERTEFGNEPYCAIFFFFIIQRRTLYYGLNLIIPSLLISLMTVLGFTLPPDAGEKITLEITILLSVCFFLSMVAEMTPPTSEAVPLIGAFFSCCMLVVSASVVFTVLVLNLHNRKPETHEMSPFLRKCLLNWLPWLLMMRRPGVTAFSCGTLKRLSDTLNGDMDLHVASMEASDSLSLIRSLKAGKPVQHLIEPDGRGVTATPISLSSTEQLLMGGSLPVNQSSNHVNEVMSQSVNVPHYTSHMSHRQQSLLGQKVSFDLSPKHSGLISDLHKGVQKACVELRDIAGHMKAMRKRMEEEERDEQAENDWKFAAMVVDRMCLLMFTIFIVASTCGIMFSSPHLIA
Asu-EAT-2 nAChR, sequence (F1L1D9 entry or part of it, further chain): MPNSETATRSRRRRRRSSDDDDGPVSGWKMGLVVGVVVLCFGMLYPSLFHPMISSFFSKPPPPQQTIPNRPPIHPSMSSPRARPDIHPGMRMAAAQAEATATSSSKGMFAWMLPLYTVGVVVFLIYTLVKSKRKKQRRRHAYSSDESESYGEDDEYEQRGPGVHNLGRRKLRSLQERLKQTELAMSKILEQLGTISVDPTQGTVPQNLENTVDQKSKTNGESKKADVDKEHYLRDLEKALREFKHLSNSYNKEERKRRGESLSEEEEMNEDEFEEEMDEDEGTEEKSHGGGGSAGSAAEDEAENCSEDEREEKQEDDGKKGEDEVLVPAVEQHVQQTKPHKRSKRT

## CC(=O)OCC[N+](C)(C)C [ACh, acetylcholine]
[1]
  times more potent on Asu-EAT-2 nAChR compared to Cel-EAT-2: ≈ 9 times
[1]; ACh concentration-response, mean±SEM, n=6
  Hill slope (nH): 3.5 ± 1.1
[1]; [5]
  Emax at 100 µM: 100%
[2]; mean±SEM
  Hill slope (nH): 1.9±0.3 and 1.9 ± 0.2
[3]; Ascaris suum
  Emax: 100%
[3]; Ascaris suum, concentration-conductance curve, 1-1000 μM applied for 10 s, mean±SEM, read-out: pEC50 (converted)
  EC50: 10 µM
[3]; agonist concentration-response curve
  maximal response: 105.3 ± 2.5 μS
[3]; concentration-conductance curve, mean±SEM
  Hill slope (nH): 1.8±0.3

## CO[C@H]1CC=C2CCN3CCC4=C(CC(=O)OC4)[C@]23C1 [DHβE, Dihydro-β-erythroidine]
[1]
  mean % inhibition of ACh (100 μM) mediated currents: 66±8.4%
[2]
  effect on sensitivity and efficacy of the receptor for ACh: not altered
[2]; antagonist 30 μM
  Imax of ACh concentration-response in the presence of antagonist: 91.1±4.1%
[3]
  % inhibition of 100 μM ACh membrane conductance (δG): 17.9±5.0%
[3]; DHβE 30 μM
  maximal response (δG) of ACh in the presence of antagonist: 89.7±3.0 μS

## C[N+]1(C)CCN(c2ccccc2)CC1 [DMPP]
[1]; [5]
  Emax: 6.6 ± 1.9%
[2]; agonist 100 μM, mean±SEM, n≥6
  current response normalized to the control 100 μM ACh current (Imax): failed to respond
  Emax at 100 µM: 0%
[3]; Ascaris suum
  Emax: 12 ± 2.9%

## Cc1ccc(C[N+](C)(C)C)o1 [MFI, 5-methylfurmethiodide]
[3]
  normalized response (δG) to muscarinic agonists, control ACh = 100%: 4.0±0.6%

## C#Cc1cncc([C@@H]2CCCN2C)c1 [SIB 1508Y]
[2]; agonist 100 μM, mean±SEM, n≥6
  Emax at 100 µM: 0%

## c1cncc([C@@H]2CCCCN2)c1 [anabasine]
[2]; agonist 100 μM, mean±SEM, n≥6
  Emax at 100 µM: 0%

## COC(=O)C1=CCCN(C)C1 [arecoline]
[4]
  response relative to ACh (rank order series of muscarinic agonists): 76%
[3]; [6]
  normalized response (δG) to muscarinic agonists, control ACh = 100%: 2.6±2.0%

## C[N+](C)(CCOc1ccccc1)Cc1ccccc1 [bephenium]
[1]; mean±SEM, n≥5
  current response normalized to the control 100 μM ACh current: failed to activate the receptor
[1]; [5]
  Emax: 0.1 ± 0.1%
[2]; agonist 100 μM, mean±SEM, n≥6
  current response normalized to the control 100 μM ACh current (Imax): did not activate the receptor
  Emax at 100 µM: 0%
[3]; Ascaris suum
  Emax: 7.2 ± 3.5%

## CC(C[N+](C)(C)C)OC(N)=O (stereo not drawn) [bethanechol]
[4]
  response relative to ACh (rank order series of muscarinic agonists): 58%

## C[N+](C)(C)CCOC(N)=O [carbachol]
[4]
  response relative to ACh (rank order series of muscarinic agonists): 80%
[2]; mean±SEM
  Hill slope (nH): 2.1±0.3
[2]; agonist 100 μM, mean±SEM, n≥6
  Emax at 100 µM: 37 ± 3.4%
[2]
  EC50: 398 µM

## C[N+](C)(C)CCO [choline]
[1]; [7]
  Emax: 0%
[3]; Ascaris suum
  Emax: 0%

## O=c1cccc2n1C[C@@H]1CNC[C@H]2C1 [cytisine]
[1]; [7]
  Emax: 81 ± 5.2%
[2]
  Emax at 100 µM: 0%
[3]; Ascaris suum
  Emax: 71.2 ± 5%

## COc1cc2c3cc1Oc1cc(ccc1O)C[C@@H]1c4c(cc(OC)c(O)c4Oc4ccc(cc4)C[C@@H]3N(C)CC2)CC[N+]1(C)C [d-TC, d-tubocurarine]
[2]; read-out: reduction (inhibition) in the mean ACh response, 30 μM d-tubocurarine
  inhibition at 30 µM: ~98%
[3]
  % inhibition of 100 μM ACh membrane conductance (δG): 94.6±0.2%
[3]; antagonist 10 μM
  mode of antagonism of the pharyngeal ACh response: non-competitive antagonists
  maximal response (δG) of ACh in the presence of antagonist: 23.0±3.0 μS

## CN1C(=O)[C@]23C[C@H]4C(C)(C)[C@]5(CNc6c5ccc5c6OC=CC(C)(C)O5)C[C@@]41CN2CC[C@@]3(C)O [derquantel]
[1]
  mean % inhibition of ACh (100 μM) mediated currents: 72.0±3.4%
[2]; antagonist 10 μM
  Imax of ACh concentration-response in the presence of antagonist: 68.4±2.1%
[3]
  % inhibition of 100 μM ACh membrane conductance (δG): 30.6±7.0%

## Clc1ccc(C2CC3CCC2N3)cn1 (stereo not drawn) [epibatidine]
[1]; [5]
  Emax: 77 ± 4.2%
[2]; agonist 100 μM, mean±SEM, n≥6
  Emax at 100 µM: 25 ± 1.5%
[3]; mean±SEM
  % change in membrane conductance (δG) normalized to the ACh δG: 31.0±3.0%

## C[N+](C)(C)CCCCCC[N+](C)(C)C [hexamethonium]
[3]
  % inhibition of 100 μM ACh membrane conductance (δG): 26.8±1.9%

## c1ccc([C@H]2CN3CCSC3=N2)cc1 [levamisole]
[1]
  current response normalized to the control 100 μM ACh current: failed to activate the receptor
[1]; [7]
  Emax: 0%
[2]; agonist 100 μM, mean±SEM, n≥6
  Emax at 100 µM: 0%
[3]; Ascaris suum
  Emax: 1.8 ± 0.61%

## CN1[C@@H](CC(=O)c2ccccc2)CCC[C@H]1C[C@H](O)c1ccccc1 [lobeline]
[2]; agonist 100 μM, mean±SEM, n≥6
  Emax at 100 µM: 0%

## CNC1(C)C2CCC(C2)C1(C)C (stereo not drawn) [mecamylamine]
[3]
  % inhibition of 100 μM ACh membrane conductance (δG): 92% and 92.2±1.9%

## CC(=O)OC(C)C[N+](C)(C)C (stereo not drawn) [methacholine]
[2]; agonist 100 μM, mean±SEM, n≥6
  current response normalized to the control 100 μM ACh current (Imax): 73 ± 5.3%
  Emax at 100 µM: 73 ± 5.3%
[2]; mean±SEM
  Hill slope (nH): 3.5±1.3
[2]
  EC50: 79.4 µM

## CCN1C[C@]2(COC(=O)c3ccccc3N3C(=O)C[C@H](C)C3=O)CC[C@H](OC)[C@@]34[C@@H]5C[C@H]6[C@H](OC)[C@@H]5[C@](O)(C[C@@H]6OC)[C@@](O)([C@@H](OC)[C@H]23)[C@@H]14 [methyllycaconitine]
[3]
  % inhibition of 100 μM ACh membrane conductance (δG): 62.6±3.7%
[3]; antagonist 10 μM
  mode of antagonism of the pharyngeal ACh response: non-competitive antagonists
  maximal response (δG) of ACh in the presence of antagonist: 57.0±4.6 μS

## Cc1ccsc1/C=C/C1=NCCCN1C [morantel]
[1]; [5]
  Emax: 0%
[2]; agonist 100 μM, mean±SEM, n≥6
  current response normalized to the control 100 μM ACh current (Imax): did not activate the receptor
[3]; Ascaris suum
  Emax: 0.3 ± 0.3%

## c1cncc([C@@H]2CCCN2)c1 [nornicotine]
[2]; agonist 100 μM, mean±SEM, n≥6
  Emax at 100 µM: 0%

## CN1CCCN=C1/C=C/c1cccc(O)c1 [oxantel]
[1]; [5]
  Emax: 3 ± 1.3%
[2]; agonist 100 μM, mean±SEM, n≥6
  current response normalized to the control 100 μM ACh current (Imax): 11 ± 1.3%
  Emax at 100 µM: 11 ± 1.3%
[3]; Ascaris suum
  Emax: 0%

## O=C1CCCN1CC#CCN1CCCC1 [oxotremorine]
[4]
  response relative to ACh (rank order series of muscarinic agonists): 61%
[3]
  normalized response (δG) to muscarinic agonists, control ACh = 100%: 1.8±0.8%

## CN1C(=O)[C@]23C[C@H]4C(C)(C)[C@@]5(C[C@@]41CN2CC[C@@]3(C)O)C(=O)Nc1c5ccc2c1OC=CC(C)(C)O2 [paraherquamide]
[2]; antagonist 30 μM
  Imax of ACh concentration-response in the presence of antagonist: 40.2±2.7%
[3]
  % inhibition of 100 μM ACh membrane conductance (δG): 37.2±8.7%
[3]; antagonist 10 μM
  mode of antagonism of the pharyngeal ACh response: non-competitive antagonists
  maximal response (δG) of ACh in the presence of antagonist: 87.7±5.7 μS

## CC[C@@H]1C(=O)OC[C@@H]1Cc1cncn1C [pilocarpine]
[4]
  response relative to ACh (rank order series of muscarinic agonists): 14%
[3]; [6]
  normalized response (δG) to muscarinic agonists, control ACh = 100%: 0.7±0.7%

## CN1CCCN=C1/C=C/c1cccs1 [pyrantel]
[1]
  current response normalized to the control 100 μM ACh current: failed to activate the receptor
[1]; [7]
  Emax: 0%
[2]; agonist 100 μM, mean±SEM, n≥6
  Emax at 100 µM: 0%
[3]; Ascaris suum
  Emax: 0%

## C[N+](C)(CCOc1ccccc1)Cc1cccs1 [thenium]
[1]; [5]
  Emax: 0%
[3]; Ascaris suum
  Emax: 6.1 ± 1.5%

## C/C(=N/c1ccc(/N=C/c2ccc(/C=N/c3ccc(/N=C(/C)N(C)C)cc3)cc2)cc1)N(C)C [tribendimidine]
[3]; mean±SEM
  % change in membrane conductance (δG) normalized to the ACh δG: 0.0±0.0%

## α-bungarotoxin [α-BTX]
[2]
  Imax of ACh concentration-response in the presence of antagonist: 86.0±2.4%
  effect on sensitivity and efficacy of the receptor for ACh: not altered

## α-cotinine
[2]; agonist 100 μM, mean±SEM, n≥6
  current response normalized to the control 100 μM ACh current (Imax): 0.0±0.0%

— article PMC7173930, “EAT-18 is an essential auxiliary protein interacting with the non-alpha nAChR subunit EAT-2 to form a functional receptor” (PLoS Pathogens, 2020)
